Results on one compound are retold here after patent US20220193076A1, “METHODS OF TREATING BREAST CANCER WITH TUCATINIB” (Seagen Inc., priority 2019, published 2022).

Like-named read-outs stand apart in the source and are kept apart here.

One data set has as its system CYP3A4 and CYP2C8. Put plainly: Example 2 Part B: effect of inducer rifampin on PK of tucatinib. Format: in vivo, human. The following applies: tucatinib 300 mg single dose in combination with rifampin vs tucatinib alone. As to the method:
They were discharged on Day 12 after completion of the in-patient assessments. […] On Day 3 through Day 11, each subject received single oral doses of 600 mg of rifampin once daily (QD). On Day 10, each subject received a single oral dose of 300 mg of tucatinib. […] Other noncompartmental PK parameters may be reported. Additionally, blood samples were collected for determination of trough levels of rifampin prior to morning dosing on the days indicated in FIG. 6.

Data set [1] is described as follows: Example 2 Part D: single- and multiple-dose PK of tucatinib and ONT-993. The following applies: tucatinib 300 mg BID, Day 10 vs Day 4. Format: in vivo, human. From the text: Other noncompartmental PK parameters may be reported.
Another data set has as its system CYP3A4/5. Put plainly: Cytochrome P450 3A4/5 inhibition in human liver microsomes (Example 4). Format: in vitro ADME. The note with it: both sexes, pooled human liver microsomes. As to the method:
This in vitro study was designed to evaluate the ability of tucatinib to inhibit the major CYP enzyme CYP3A4/5 in human liver microsomes (using two different substrates) with the aim of ascertaining the potential of tucatinib to inhibit the metabolism of concomitantly administered drugs. The inhibitory potency of tucatinib was determined in vitro by measuring the activity of CYP3A4/5 in human liver microsomes in the presence and absence of tucatinib. […] Metabolism-dependent inhibition was further evaluated to determine how quickly (kinact value) and to what extent (Ki value) tucatinib inactivates CYP3A4/5.
Human liver microsomes from non-transplantable, donated livers were prepared and characterized. A mixed-gender pool of 200 individual human liver microsomal samples was used for this study (Sekisui XenoTech catalog number: H2620, lot number: 1210347).
To measure CYP activity, incubations were conducted at approximately 37° C. in 200 μL incubation mixtures (pH 7.4) containing water, potassium phosphate buffer (50 mM), MgCl2 (3 mM), EDTA (1 mM), an NADPH-regenerating system (always the mixture of the following: NADP [1 mM], glucose 6 phosphate [5 mM], glucose 6 phosphate dehydrogenase [1 Unit/mL]), and marker substrate at the final concentrations indicated.
Aliquots of the stock and/or working solutions of tucatinib were manually added to buffer mixtures described above. Incubation mixtures were prepared in bulk to obviate the need for directly pipetting very small volumes (i.e., 1 μL or less). Incubations containing no tucatinib (0 μM; Solvent Control) contained the solvent used to dissolve tucatinib (i.e., DMSO).
The Tecan liquid handling system conducted all remaining steps for the IC50 and Kl/kinact determinations, with the exception of the centrifugation. For these assays, duplicate aliquots of the buffer mixtures were automatically added to 96-well plates at the appropriate locations. Aliquots of a substrate working solution were added to the 96-well plates prior to initiating reactions. Marker substrate reactions were initiated by the addition of an aliquot of an NADPH-regenerating system and were automatically terminated at approximately 5 min by the addition of the appropriate internal standard and stop reagent, acetonitrile. The samples were centrifuged at 920×g for 10 min at 10° C. The supernatant fractions were analyzed by LC-MS/MS. Standards were similarly prepared with the addition of authentic metabolite standards.
Due to the possibility that tucatinib may bind to microsomal protein or lipids, an attempt was made to design these experiments such that, in as many cases as possible, the microsomal protein, incubation time and buffer concentration were 0.1 mg/mL, 5 min and 50 mM, respectively.
To examine its ability to act as a direct inhibitor of enzymes, tucatinib (at concentrations ranging from 0.01 to 10 μM) was incubated with marker substrate and human liver microsomes. The concentrations of marker substrates were based on the Km or S50 data that were determined previously.
To examine its ability to act as a metabolism-dependent inhibitor of CYP3A4/5 enzymes, tucatinib (at the same concentrations used to evaluate direct inhibition) was preincubated at 37±2° C., in duplicate, with human liver microsomes and an NADPH-regenerating system for approximately 30 min. This preincubation allowed for the generation of intermediates that could inhibit human CYP3A4/5 activity. The preincubations were initiated by the addition of an aliquot of an NADPH-regenerating system. To examine its ability to act as a time-dependent inhibitor of CYP3A4/5 enzymes, additional duplicate samples at all tucatinib concentrations were preincubated for 30 min in the presence of pooled human liver microsomes, but in the absence of NADPH. This preincubation allowed assessment of whether any potential increase in inhibition was dependent upon NADPH (e.g., potentially CYP-mediated). […]

Another data set has as its target T1, MATE1 (Homo sapiens, UniProt Q96FL8).
T1 sequence (Q96FL8 1-570): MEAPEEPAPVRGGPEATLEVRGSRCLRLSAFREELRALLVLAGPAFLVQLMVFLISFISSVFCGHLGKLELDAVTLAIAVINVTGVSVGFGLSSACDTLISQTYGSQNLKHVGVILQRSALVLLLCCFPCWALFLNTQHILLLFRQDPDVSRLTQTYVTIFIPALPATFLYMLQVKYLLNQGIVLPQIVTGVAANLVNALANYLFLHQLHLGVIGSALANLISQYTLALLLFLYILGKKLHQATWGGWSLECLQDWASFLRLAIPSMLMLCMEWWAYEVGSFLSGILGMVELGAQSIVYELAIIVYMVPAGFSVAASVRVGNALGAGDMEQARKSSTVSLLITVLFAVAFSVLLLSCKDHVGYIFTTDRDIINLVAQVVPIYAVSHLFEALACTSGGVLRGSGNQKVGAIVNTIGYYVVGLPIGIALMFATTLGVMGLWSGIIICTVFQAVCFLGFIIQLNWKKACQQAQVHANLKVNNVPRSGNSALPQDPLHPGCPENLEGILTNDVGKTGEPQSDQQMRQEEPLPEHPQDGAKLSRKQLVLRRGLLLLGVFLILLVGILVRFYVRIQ
Put plainly: Inhibition of MATE1 mediated transport of creatinine in transfected MDCK-II cells (Example 3). Format: in vitro ADME. Also on record: expressed in transfected cells; host or cells: MDCK-II. The following applies: probe substrate creatinine. As to the method: OAT2, OCT2, OCT3, MATE1, and MATE2-K are the renal transporters identified to transport creatinine.
For this study, MDCK-II were maintained in DMEM with low glucose and 10% FBS. Cells were seeded at 60K±10K cells/well on 96-well, transwell membrane plates approximately 24 hours before transfection. Transport assays were carried out approximately 48 hours after transfection. Cells were transfected and treated to express the transporter of interest or treated with a control vector. The transport of creatinine was determined by radiometric detection.
Net transporter mediated uptake of the substrate by each transporter was calculated as follows: Net Transporter Mediated Substrate Uptake (pmol/min/cm^2)=(Cellular accumulation in the presence of the transporter)−(Mean cellular accumulation in the absence of the transporter.
Percent inhibition was calculated as follows: Percent inhibition=100−(100*(transporter mediated uptake)with inhibition/(transporter mediated uptake)without inhibition)
The following equation was used to determine IC50 values of uptake assays: […]

For `Cc1cc(Nc2ncnc3ccc(NC4=NC(C)(C)CO4)cc23)ccc1Oc1ccn2ncnc2c1` [tucatinib], in the data set with CYP3A4 and CYP2C8, the “Geometric LS mean ratio (90% CI), AUC0-∞” value was 0.520 (0.452, 0.597); the “Geometric LS mean ratio (90% CI), AUClast” value was 0.517 (0.449, 0.596); the “Geometric LS mean ratio (90% CI), Cmax” value is on record as 0.632 (0.531, 0.753). Besides, the “Rac (accumulation ratio) after multiple dosing” value in data set [1] came out at 1.85. Besides, the kinact/KI in the data set with CYP3A4/5 (human, pH 7.4, probe midazolam (1′-hydroxylation), midazolam 1′-hydroxylation, read-out: Efficiency of inactivation (kinact/KI) (converted)) was 350 M⁻¹ s⁻¹. Further, the IC50 at 5 min with CYP3A4/5 (human, pH 7.4, probe midazolam (1′-hydroxylation), read-out: IC50, direct inhibition of CYP3A4/5-mediated midazolam 1′-hydroxylation) was 3300 nM. For the same compound, the KI (inactivation) with CYP3A4/5 (human, pH 7.4, probe midazolam (1′-hydroxylation), read-out: KI, inactivation of CYP3A4/5-mediated midazolam 1′-hydroxylation, mean±SE) worked out at 540 ± 250 nM. In the data set on CYP3A4/5 (human, pH 7.4, probe midazolam (1′-hydroxylation), read-out: kinact, inactivation of CYP3A4/5-mediated midazolam 1′-hydroxylation, mean±SE (converted)), the kinact is 0.000183 s⁻¹. For the same compound, the IC50 at 5 min in the data set on CYP3A4/5 (human, pH 7.4, probe testosterone (6β-hydroxylation), read-out: IC50, direct inhibition of CYP3A4/5-mediated testosterone 6p-hydroxylation) was greater than 10000 nM. For the same compound, the inhibition at 5 min with CYP3A4/5 (pH 7.4, probe testosterone (6β-hydroxylation), human liver microsomes, up to 10 μM, read-out: Maximum direct inhibition of CYP3A4/5-mediated testosterone 6p-hydroxylation) was found to be 44%. At MATE1, this compound yielded an IC50 of 85.5 ± 17.5 nM.
